From patent US20240210412A1, “SULFONYL-TRIAZOLE COMPOUNDS USEFUL AS LIGANDS AND INHIBITORS OF PROSTAGLANDIN REDUCTASE 2” (University of Virginia Patent Foundation, priority 2021, published 2024) come the findings set out here.

Holding throughout (test): SILAC LC-MS ABPP
What all share (assay type): cell-based
Holding throughout (settings): 25 μM 2 h, live DM93 cells

In one experiment the target is T1, Q9ULV4 (Homo sapiens, UniProt Q9ULV4).
T1 construct: endogenous in cells; host or cells: DM93 cells (SILAC)
The procedure: (§1) Cells were grown to 90-95% confluence before being washed once with warm, sterile DPBS (1×, 5 mL), followed by addition of 10 mL of serum-free media (supplemented with 1% L-glutamine) containing either DMSO or SuTEx fragment (in DMSO) was added. Light cells were treated with DMSO vehicle while the heavy cells were treated with DMSO or SuTEx fragment (in DMSO) and incubated for 2 hrs. After 2 hrs, the cells were treated with SuTEx alkyne probe (HHS475, 10 μL of 1000× DMSO stock) and incubated for an additional 2 hrs. The media was aspirated and cells washed with cold PBS (5 mL) and harvested. Cells were spun at 500×g for 5 min at 4° C. followed by removal of supernatant. Pellets were resuspended in 1 mL of cold DPBS and spun at 1,400×g for 3 min at 4° C. followed by removal of supernatant. The cells were lysed in PBS by sonication and fractionated (100,000×g, 45 min, 4° C.).The light and heavy soluble fractions were diluted to 2.3 mg/mL in PBS and 432 μL were used for analysis (1 mg total protein). The probe-modified proteomes were conjugated to desthiobiotin-PEG3-azide (10 μl of 10 mM stock in DMSO; 200 μM final concentration) using TCEP (10 μl of fresh 50 mM stock in water, 1 mM final concentration), TBTA ligand (33 μl of a 1.7 mM 4:1 t-butanol/DMSO stock, 100 μM final concentration) and CuSO4 (10 μl of 50 mM stock, 1 mM final concentration). Samples were vortexed to mix and incubated for 1 hr at room temperature. The heavy and light proteomes were mixed 1:1 and the subsequent steps, including LC-MS/MS data analysis, were performed as previously described^[8a].
(§2) Coupling cell-based screens with chemical proteomics can facilitate the identification of target protein and binding sites that engage and are irreversibly modified by covalent ligands^[12]. In these assays, covalent ligands block SuTEx activity-based probe (ABP) labeling at protein sites, and the competition of probe labeling can be used to quantify potency and selectivity across the proteome^[10a]. To facilitate quantitative chemical proteomics, DM93 melanoma cells were cultured using stable isotopic labeling by amino acids in cell culture (SILAC)^[13]. Cells cultured in “light” media were treated with dimethyl sulfoxide (DMSO) vehicle while cells cultured in “heavy” media were treated with SuTEx ligand (25 μM, 2 hours, 37° C.). Next, cells were treated with HHS-475 probe (100 μM, 2 hours, 37° C.) followed by lysis and processing of proteomes for analysis. Probe-modified proteins from the soluble fraction were conjugated to a desthiobiotin-azide tag by copper-catalyzed azide-alkyne cycloaddition (CuAAC)^[14] followed by mixing of the light and heavy proteomes. The combined proteomes were digested with trypsin protease to produce probe-modified peptides, followed by enrichment and purification by avidin affinity chromatography. Probe-modified peptides were resolved, identified, and quantified by high-resolution liquid chromatography-tandem mass spectrometry (LC-MS/MS). Resultant data were analyzed as previously described^[8a, 10a]. Table 2, below, lists sites of modification targeted by sulfonyl-triazole compounds HHS-0101, HHS-0201, HHS-0301, HHS-0401, and HHS-0701. The format of the table is as follows: protein Uniprot accession number (see uniprot.org); tyrosine site (amino acid position) modified; treatment (sulfonyl-triazole compound identification number, followed by Y (where if multiple compounds modify the same site, the compounds are separated by vertical lines).

The target of another experiment is T2, Q04637 (Homo sapiens, UniProt Q04637).
T2 construct: performing SuTEx compound screening directly in cells; endogenous in cells; host or cells: DM93 cells (SILAC)
The procedure: as §1, §2

The target of a further experiment is T3, O75150 (Homo sapiens, UniProt O75150).
T3 construct: endogenous in cells; host or cells: DM93
On the procedure: as §1, §2

The target in another experiment is T4, Q93052 (Homo sapiens, UniProt Q93052).
T4 construct: endogenous in cells; host or cells: DM93 cells (SILAC), live-cell treatment
T4 sequence (Q93052 1-612): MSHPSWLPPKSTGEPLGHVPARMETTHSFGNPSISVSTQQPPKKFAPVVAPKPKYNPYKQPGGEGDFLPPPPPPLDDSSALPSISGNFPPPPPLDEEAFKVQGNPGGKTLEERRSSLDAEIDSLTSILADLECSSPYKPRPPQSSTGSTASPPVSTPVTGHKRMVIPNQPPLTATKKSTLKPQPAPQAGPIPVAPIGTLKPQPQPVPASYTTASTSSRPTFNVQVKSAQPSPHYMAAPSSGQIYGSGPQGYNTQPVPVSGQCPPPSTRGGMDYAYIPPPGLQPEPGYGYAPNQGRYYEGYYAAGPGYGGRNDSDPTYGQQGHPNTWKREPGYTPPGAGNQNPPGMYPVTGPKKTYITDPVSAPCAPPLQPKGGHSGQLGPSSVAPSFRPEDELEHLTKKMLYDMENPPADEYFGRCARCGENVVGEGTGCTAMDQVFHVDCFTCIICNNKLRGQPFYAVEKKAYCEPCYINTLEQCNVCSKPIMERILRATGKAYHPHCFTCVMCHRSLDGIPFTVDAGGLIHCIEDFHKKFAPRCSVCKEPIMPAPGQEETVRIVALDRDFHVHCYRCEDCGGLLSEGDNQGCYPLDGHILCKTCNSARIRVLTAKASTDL
On the procedure:
as §1, §2

The target in another experiment is T5, Q9Y520 (Homo sapiens, UniProt Q9Y520).
T5 construct: endogenous in cells; host or cells: DM93 cells (SILAC)
On the procedure: as §1, §2

Another experiment has as its target T6, Q9Y6D5 (Homo sapiens, UniProt Q9Y6D5).
T6 construct: endogenous in cells; host or cells: DM93 cells (SILAC)
The procedure:
as §1, §2

T2 sequence (Q04637 whole entry): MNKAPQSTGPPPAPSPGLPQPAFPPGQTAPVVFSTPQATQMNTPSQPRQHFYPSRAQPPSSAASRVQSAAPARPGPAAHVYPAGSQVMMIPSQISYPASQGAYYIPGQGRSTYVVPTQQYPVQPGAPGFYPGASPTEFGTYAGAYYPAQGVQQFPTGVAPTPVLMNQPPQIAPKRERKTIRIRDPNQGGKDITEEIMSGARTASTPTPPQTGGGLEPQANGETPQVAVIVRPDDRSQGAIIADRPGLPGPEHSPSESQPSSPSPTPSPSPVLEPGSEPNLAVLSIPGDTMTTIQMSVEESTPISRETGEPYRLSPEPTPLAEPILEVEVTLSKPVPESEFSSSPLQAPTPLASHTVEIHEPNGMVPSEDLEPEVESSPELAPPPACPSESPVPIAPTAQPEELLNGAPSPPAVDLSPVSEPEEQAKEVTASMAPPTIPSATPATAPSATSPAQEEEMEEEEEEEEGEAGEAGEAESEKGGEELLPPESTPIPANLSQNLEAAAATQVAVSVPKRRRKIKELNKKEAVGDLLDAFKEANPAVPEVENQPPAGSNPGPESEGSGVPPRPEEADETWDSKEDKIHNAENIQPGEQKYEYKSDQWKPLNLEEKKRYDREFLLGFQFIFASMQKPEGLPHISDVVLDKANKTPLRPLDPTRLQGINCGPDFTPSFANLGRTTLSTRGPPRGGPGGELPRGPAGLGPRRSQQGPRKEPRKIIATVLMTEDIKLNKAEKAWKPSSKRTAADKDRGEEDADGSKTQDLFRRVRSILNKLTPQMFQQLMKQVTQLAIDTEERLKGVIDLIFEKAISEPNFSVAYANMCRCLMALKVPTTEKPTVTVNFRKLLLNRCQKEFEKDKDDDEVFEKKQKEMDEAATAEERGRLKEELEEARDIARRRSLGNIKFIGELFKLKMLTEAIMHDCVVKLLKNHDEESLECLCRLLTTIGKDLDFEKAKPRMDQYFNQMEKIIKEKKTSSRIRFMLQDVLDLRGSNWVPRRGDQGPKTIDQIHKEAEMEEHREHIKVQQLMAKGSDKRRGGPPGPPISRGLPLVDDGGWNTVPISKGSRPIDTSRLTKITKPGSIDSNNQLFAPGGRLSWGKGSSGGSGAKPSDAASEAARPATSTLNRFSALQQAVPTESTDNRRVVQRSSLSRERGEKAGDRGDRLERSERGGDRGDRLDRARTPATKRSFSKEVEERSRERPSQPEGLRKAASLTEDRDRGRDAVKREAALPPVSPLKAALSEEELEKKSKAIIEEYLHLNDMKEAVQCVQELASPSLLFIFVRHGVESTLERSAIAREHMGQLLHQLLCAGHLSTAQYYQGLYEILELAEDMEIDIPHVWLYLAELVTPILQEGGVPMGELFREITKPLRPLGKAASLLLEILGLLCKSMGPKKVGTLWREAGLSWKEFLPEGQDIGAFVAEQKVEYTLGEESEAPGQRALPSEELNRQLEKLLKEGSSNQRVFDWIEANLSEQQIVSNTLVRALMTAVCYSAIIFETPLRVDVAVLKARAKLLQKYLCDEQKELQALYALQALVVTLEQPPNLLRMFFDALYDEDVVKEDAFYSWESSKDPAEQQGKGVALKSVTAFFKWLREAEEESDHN
T6 sequence (Q9Y6D5 whole entry): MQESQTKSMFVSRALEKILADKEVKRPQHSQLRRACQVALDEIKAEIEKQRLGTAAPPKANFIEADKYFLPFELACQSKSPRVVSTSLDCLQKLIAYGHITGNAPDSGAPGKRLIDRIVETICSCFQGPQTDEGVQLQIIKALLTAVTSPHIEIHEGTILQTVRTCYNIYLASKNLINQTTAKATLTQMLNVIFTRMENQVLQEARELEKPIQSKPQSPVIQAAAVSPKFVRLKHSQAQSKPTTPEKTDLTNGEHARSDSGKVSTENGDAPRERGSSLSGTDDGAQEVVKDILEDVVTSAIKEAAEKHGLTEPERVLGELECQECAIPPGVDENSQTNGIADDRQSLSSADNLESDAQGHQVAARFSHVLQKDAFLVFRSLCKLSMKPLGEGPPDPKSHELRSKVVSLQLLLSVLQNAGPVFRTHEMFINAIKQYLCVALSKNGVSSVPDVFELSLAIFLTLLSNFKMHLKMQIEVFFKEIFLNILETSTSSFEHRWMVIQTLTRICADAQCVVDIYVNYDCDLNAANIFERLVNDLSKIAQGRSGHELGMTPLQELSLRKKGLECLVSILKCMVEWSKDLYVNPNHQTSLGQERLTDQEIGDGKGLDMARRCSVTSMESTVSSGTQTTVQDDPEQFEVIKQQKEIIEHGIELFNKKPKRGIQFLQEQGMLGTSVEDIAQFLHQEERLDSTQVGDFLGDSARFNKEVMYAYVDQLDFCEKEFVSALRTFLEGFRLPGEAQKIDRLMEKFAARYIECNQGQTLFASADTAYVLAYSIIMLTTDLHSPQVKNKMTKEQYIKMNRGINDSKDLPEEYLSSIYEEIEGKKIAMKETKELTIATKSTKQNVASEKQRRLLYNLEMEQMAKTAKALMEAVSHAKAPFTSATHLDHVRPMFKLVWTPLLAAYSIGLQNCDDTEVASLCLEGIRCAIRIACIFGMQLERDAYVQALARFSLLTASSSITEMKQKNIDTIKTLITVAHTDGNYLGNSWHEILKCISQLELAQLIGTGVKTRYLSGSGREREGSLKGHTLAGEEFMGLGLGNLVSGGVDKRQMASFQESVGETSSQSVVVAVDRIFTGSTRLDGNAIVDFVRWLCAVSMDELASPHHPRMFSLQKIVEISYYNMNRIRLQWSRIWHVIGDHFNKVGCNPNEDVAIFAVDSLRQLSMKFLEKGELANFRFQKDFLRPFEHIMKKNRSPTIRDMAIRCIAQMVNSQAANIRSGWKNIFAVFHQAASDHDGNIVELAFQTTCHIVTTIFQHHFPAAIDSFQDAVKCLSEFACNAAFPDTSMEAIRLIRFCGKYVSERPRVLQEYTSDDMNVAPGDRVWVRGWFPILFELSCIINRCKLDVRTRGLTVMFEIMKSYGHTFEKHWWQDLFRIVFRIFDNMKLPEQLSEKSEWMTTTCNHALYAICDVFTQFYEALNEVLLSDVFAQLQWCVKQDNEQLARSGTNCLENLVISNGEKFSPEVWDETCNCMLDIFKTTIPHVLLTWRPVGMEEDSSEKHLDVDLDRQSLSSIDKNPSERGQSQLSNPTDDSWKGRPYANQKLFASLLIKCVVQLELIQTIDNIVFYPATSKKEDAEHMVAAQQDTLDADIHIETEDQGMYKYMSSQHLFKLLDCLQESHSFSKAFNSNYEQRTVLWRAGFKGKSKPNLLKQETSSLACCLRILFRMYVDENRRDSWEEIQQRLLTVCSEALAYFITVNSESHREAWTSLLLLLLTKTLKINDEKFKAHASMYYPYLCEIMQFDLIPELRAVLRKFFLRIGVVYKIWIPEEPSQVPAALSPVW
T1 sequence (Q9ULV4 whole entry): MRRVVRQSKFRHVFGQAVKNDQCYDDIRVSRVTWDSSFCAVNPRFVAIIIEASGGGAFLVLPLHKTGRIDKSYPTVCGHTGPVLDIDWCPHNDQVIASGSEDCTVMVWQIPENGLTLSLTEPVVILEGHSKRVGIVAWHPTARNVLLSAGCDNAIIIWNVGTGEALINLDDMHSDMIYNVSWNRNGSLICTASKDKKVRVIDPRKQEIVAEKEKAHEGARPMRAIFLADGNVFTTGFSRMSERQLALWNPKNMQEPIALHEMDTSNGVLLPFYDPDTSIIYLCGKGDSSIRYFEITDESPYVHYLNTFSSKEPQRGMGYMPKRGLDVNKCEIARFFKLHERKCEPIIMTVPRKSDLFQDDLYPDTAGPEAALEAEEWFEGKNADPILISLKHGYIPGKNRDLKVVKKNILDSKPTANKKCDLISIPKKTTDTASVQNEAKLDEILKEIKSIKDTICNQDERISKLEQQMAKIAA
T3 sequence (O75150 whole entry): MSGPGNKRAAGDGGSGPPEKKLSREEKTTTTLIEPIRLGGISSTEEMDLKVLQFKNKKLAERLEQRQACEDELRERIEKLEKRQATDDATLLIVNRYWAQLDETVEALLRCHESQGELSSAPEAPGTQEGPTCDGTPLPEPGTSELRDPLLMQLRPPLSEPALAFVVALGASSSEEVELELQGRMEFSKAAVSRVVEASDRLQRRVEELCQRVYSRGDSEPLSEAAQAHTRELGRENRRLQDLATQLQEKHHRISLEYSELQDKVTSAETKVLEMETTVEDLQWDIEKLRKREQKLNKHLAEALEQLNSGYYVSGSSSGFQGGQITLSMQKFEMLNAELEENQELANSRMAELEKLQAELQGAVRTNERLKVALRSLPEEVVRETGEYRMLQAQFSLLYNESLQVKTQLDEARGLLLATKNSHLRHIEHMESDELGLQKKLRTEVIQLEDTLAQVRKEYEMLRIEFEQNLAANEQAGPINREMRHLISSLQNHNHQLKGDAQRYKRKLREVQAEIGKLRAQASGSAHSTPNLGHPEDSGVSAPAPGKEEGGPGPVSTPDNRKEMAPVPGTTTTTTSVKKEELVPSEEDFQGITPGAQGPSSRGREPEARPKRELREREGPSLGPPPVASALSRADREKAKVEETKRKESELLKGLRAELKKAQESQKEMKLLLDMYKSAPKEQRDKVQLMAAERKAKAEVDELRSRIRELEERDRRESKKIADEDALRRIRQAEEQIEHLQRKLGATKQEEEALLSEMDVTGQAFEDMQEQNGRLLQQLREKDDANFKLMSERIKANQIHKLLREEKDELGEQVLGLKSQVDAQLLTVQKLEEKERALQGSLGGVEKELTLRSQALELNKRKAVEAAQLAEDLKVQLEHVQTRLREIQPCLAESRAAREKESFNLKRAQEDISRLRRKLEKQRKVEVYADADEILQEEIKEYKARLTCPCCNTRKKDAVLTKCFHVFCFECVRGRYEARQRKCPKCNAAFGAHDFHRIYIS

As for `O=C(c1ccc(S(=O)(=O)n2cncn2)cc1)N1CCC(c2ccccc2)CC1` [HHS-0701, (4-((1H-1,2,4-triazol-1-yl)sulfonyl)phenyl)(4-phenylpiperidin-1-yl)methanone], the “liganded tyrosine site 304” value on Q9ULV4 is given as “HHS0701.Y (tyrosine sites that showed >80% reductions (SR >5) in probe labeling in cells treated with compounds (liganded sites))”.
Regarding `O=C(NC1CCCCC1)c1ccc(S(=O)(=O)n2cncn2)cc1` [HHS-0301, 4-((1H-1,2,4-triazol-1-yl)sulfonyl)-N-cyclohexylbenzamide], the “liganded tyrosine site 301” value on Q9ULV4 is reported as “HHS0301.Y (tyrosine sites that showed >80% reductions (SR >5) in probe labeling in cells treated with compounds (liganded sites))”. For the same compound, on Q04637, the “liganded tyrosine site 81” value was “HHS0301.Y (tyrosine sites that showed >80% reductions (SR >5) in probe labeling in cells treated with compounds (liganded sites))” and the “liganded tyrosine site 104” value is “HHS0301.Y|HHS0701.Y (tyrosine sites that showed >80% reductions (SR >5) in probe labeling in cells treated with compounds (liganded sites))”. On O75150, the “liganded tyrosine site 258” value was “HHS0301.Y (tyrosine sites that showed >80% reductions (SR >5) in probe labeling in cells treated with compounds (liganded sites))”. Besides, the “liganded tyrosine site 234” value at Q93052 is reported as “HHS0301.Y|HHS0401.Y (tyrosine sites that showed >80% reductions (SR >5) in probe labeling in cells treated with compounds (liganded sites))”.
On to `O=C(NCC1CC1)c1ccc(S(=O)(=O)n2cncn2)cc1` [HHS-0201, 4-((1H-1,2,4-triazol-1-yl)sulfonyl)-N-(cyclopropylmethyl)benzamide], for which, at Q9Y520, the “liganded tyrosine site 26” value is given as “HHS0201.Y (tyrosine sites that showed >80% reductions (SR >5) in probe labeling in cells treated with compounds (liganded sites))”. The “liganded tyrosine site 103” value at Q04637 is “HHS0201.Y|HHS0301.Y|HHS0401.Y|HHS0701.Y (tyrosine sites that showed >80% reductions (SR >5) in probe labeling in cells treated with compounds (liganded sites))”.
With `O=C(NCc1ccccc1)c1ccc(S(=O)(=O)n2cncn2)cc1` [HHS-0401, 4-((1H-1,2,4-triazol-1-yl)sulfonyl)-N-benzylbenzamide], the “liganded tyrosine site 2707” value on Q9Y520 is “HHS0401.Y (tyrosine sites that showed >80% reductions (SR >5) in probe labeling in cells treated with compounds (liganded sites))”. Moreover, the “liganded tyrosine site 97” value on Q9Y6D5 is recorded as “HHS0401.Y (tyrosine sites that showed >80% reductions (SR >5) in probe labeling in cells treated with compounds (liganded sites))”.
Turning to `O=C(NC1CC1)c1ccc(S(=O)(=O)n2cncn2)cc1` [HHS-0101, 4-((1H-1,2,4-triazol-1-yl)sulfonyl)-N-cyclopropylbenzamide], at O75150, the “liganded tyrosine site 928” value was “HHS0101.Y (tyrosine sites that showed >80% reductions (SR >5) in probe labeling in cells treated with compounds (liganded sites))”. Besides, on Q93052, the “liganded tyrosine site 251” value is recorded as “HHS0101.Y|HHS0401.Y (tyrosine sites that showed >80% reductions (SR >5) in probe labeling in cells treated with compounds (liganded sites))” and the “liganded tyrosine site 332” value is recorded as “HHS0101.Y (tyrosine sites that showed >80% reductions (SR >5) in probe labeling in cells treated with compounds (liganded sites))”. In addition, on Q9Y6D5, the “liganded tyrosine site 1632” value was “HHS0101.Y|HHS0301.Y|HHS0701.Y (tyrosine sites that showed >80% reductions (SR >5) in probe labeling in cells treated with compounds (liganded sites))”.
